The target of the experiment is T1, human metabotropic glutamate receptor 5 (hmGluR5) (Homo sapiens, UniProt P41594).
T1 construct: expressed in transfected cells
In words: Calcium mobilization (FLIPR) assay for negative allosteric modulation, EC80 glutamate, hmGluR5 in HEK 293. It is filed as cell-based. As to conditions: HEK293; hmGluR5, inhibition of EC80 glutamate response; read-out: FLIPR maximum inhibition. On the procedure: The cDNA for rat metabotropic glutamate receptor 5 (rmGluR5) and the cDNA for human metabotropic glutamate receptor 5 (hmGluR5) were generous gifts from S. Nakanishi (Kyoto University, Kyoto, Japan). The rmGluR5 or hmGluR5 was stably expressed in a HEK 293 cell line and grown in Dulbecco's Modified Eagle Medium (DMEM) (Invitrogen, Carlsbad, Calif.) with supplements (10% bovine calf serum, 4 mM glutamine, 100 units/mL penicillin, 100 μg/mL streptomycin and 0.75 mM G1418) at 37° C., 5% CO2. Twenty-four hours prior to assay, cells were seeded into 384-well black wall microtiter plates coated with poly-D-lysine. Just prior to assay, media was aspirated and cells dye-loaded (25 μL/well) with 3 μM Fluo-4/0.01% pluronic acid in assay buffer (Hank's Balanced Saline Solution (HBSS)): 150 mM NaCl, 5 mM KCl, 1 mM CaCl2, 1 mM MgCl2, plus 20 mM N-2-Hydroxyethylpiperazine-N′-2-ethanesulfonic acid (HEPES), pH 7.4, 0.1% bovine serum albumin (BSA) and 2.5 mM probenicid) for 1 hour in 5% CO2 at 37° C. After excess dye was discarded, cells were washed in assay buffer and layered with a final volume equal to 30 μL/well. Basal fluorescence is monitored in a fluorometric imaging plate reader (FLIPR) (Molecular Devices, Sunnyvale, Calif.) with an excitation wavelength of 488 nm and an emission range of 500 to 560 nm. Laser excitation energy was adjusted so that basal fluorescence readings were approximately 10,000 relative fluorescent units. Cells were stimulated with an EC20 or an EC80 concentration of glutamate in the presence of a compound to be tested, both diluted in assay buffer, and relative fluorescent units were measured at defined intervals (exposure=0.6 sec) over a 3 min period at room temperature. Basal readings derived from negative controls were subtracted from all samples. Maximum change in fluorescence was calculated for each well. Concentration-response curves derived from the maximum change in fluorescence were analyzed by nonlinear regression (Hill equation). A negative modulator can be identified from these concentration-response curves if a compound produces a concentration dependent inhibition of the EC80 glutamate response.

This note sets out measurements from US9359297B2, “Spirolactam derivatives and uses of same” (H. Lundbeck A/S, priority 2009, dated 2016).

Structures are written as SMILES.

T1 sequence (P41594 21-1212): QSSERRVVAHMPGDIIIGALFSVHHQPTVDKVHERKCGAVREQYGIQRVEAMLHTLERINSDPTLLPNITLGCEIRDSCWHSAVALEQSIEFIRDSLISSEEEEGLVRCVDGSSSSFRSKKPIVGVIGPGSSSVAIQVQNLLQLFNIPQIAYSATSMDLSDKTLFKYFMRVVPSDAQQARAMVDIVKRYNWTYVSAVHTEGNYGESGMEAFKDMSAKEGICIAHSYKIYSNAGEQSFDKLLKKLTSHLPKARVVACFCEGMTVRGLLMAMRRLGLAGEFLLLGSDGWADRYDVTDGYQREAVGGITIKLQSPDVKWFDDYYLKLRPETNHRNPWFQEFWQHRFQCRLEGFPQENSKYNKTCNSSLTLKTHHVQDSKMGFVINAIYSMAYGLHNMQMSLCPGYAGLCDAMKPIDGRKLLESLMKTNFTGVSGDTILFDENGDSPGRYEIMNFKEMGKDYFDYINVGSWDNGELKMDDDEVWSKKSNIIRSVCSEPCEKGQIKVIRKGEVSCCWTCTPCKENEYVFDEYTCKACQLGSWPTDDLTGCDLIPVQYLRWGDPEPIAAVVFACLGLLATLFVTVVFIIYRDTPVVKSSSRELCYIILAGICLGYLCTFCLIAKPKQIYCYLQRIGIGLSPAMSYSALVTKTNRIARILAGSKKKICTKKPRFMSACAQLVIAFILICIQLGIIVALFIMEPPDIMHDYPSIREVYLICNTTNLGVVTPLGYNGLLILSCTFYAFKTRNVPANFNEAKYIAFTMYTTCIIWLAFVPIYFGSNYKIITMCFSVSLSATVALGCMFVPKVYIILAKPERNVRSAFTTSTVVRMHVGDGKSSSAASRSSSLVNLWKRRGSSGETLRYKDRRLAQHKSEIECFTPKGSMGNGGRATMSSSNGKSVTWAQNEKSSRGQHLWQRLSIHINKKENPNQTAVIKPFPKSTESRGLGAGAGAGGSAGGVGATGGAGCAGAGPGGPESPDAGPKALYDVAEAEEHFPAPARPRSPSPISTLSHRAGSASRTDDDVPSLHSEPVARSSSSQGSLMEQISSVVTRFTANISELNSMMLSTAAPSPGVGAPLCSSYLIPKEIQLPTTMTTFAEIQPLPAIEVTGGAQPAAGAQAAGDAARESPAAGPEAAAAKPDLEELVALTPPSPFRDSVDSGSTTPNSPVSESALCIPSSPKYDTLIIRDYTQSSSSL

Turning to `Cc1cncc(C(=O)N[C@H]2CCC[C@]3(CCN(c4cc(-c5ccc(F)cc5)ncn4)C3=O)C2)n1` (relative stereo) [Example 86, cis-6-Methyl-pyrazine-2-carboxylic acid {2-[6-(4-fluoro-phenyl)-pyrimidin-4-yl]-1-oxo-2-aza-spiro [4.5]dec-7-yl}-amide], the Emax lay within 73 to 95%.

`Cc1cccc(C(=O)N[C@H]2CCC[C@]3(CCN(c4cc(-c5ccc(F)cc5)ncn4)C3=O)C2)n1` (relative stereo) [Example 87, cis-6-Methyl-pyridine-2-carboxylic acid {2-[6-(4-fluoro-phenyl)-pyrimidin-4-yl]-1-oxo-2-aza-spiro [4.5]dec-7-yl}-amide]: the Emax is 73 to 95%.

Take `O=C(N[C@H]1CCC[C@]2(CCN(c3cc(-c4ccc(F)cc4)ncn3)C2=O)C1)c1cccc(F)c1` (relative stereo) [Example 88, cis-3-Fluoro-N-{2-[6-(4-fluoro-phenyl)-pyrimidin-4-yl]-1-oxo-2-aza-spiro[4.5]dec-7-yl}-benzamide]: the Emax lay within 73 to 95%. As for `Cc1nccc(N2CC[C@]3(CCC[C@H](NC(=O)c4ccc(F)cc4)C3)C2=O)n1` (relative stereo) [Example 89, cis-4-Fluoro-N-[2-(2-methyl-pyrimidin-4-yl)-1-oxo-2-aza-spiro [4.5]dec-7-yl]-benzamide], the Emax lay within 73 to 95%. In the case of `Cc1nccc(N2CC[C@]3(CCC[C@H](NC(=O)c4ccc(F)c(F)c4)C3)C2=O)n1` (relative stereo) [Example 90, cis-3,4-Difluoro-N-[2-(2-methyl-pyrimidin-4-yl)-1-oxo-2-aza-spiro [4.5]dec-7-yl]-benzamide] it was 73 to 95%; in that of `Cc1nccc(N2CC[C@]3(CCC[C@H](NC(=O)c4ccccc4F)C3)C2=O)n1` (relative stereo) [Example 91, cis-2-Fluoro-N-[2-(2-methyl-pyrimidin-4-yl)-1-oxo-2-aza-spiro [4.5]dec-7-yl]-benzamide], 73 to 95%. In the case of `Cc1cc(C(=O)N[C@H]2CCC[C@]3(CCN(c4ccnc(C)n4)C3=O)C2)ccn1` (relative stereo) [Example 92, cis-2-Methyl-N-[2-(2-methyl-pyrimidin-4-yl)-1-oxo-2-aza-spiro [4.5]dec-7-yl]-isonicotinamide], the Emax fell in the range of 73 to 95%. In the case of `O=C(N[C@H]1CCC[C@]2(CCN(c3cccc(F)c3)C2=O)C1)c1cccc(CO)n1` (relative stereo) [Example 93, cis-6-Hydroxymethyl-pyridine-2-carboxylic acid [2-(3-fluoro-phenyl)-1-oxo-2-aza-spiro[4.5]dec-7-yl]-amide], the Emax is 73 to 95%. For `O=C(N[C@H]1CCC[C@]2(CCN(c3cccc(F)c3)C2=O)C1)c1cccc(C(F)(F)F)n1` (relative stereo) [Example 94, cis-6-Trifluoromethyl-pyridine-2-carboxylic acid [2-(3-fluoro-phenyl)-1-oxo-2-aza-spiro[4.5]dec-7-yl]-amide], the Emax lay in the range of 73 to 95%.

On to `Cc1nccc(N2CC[C@]3(CCC[C@H](NC(=O)c4cccc(C(F)(F)F)n4)C3)C2=O)n1` (relative stereo) [Example 96, cis-6-Trifluoromethyl-pyridine-2-carboxylic acid [2-(2-methyl-pyrimidin-4-yl)-1-oxo-2-aza-spiro [4.5]dec-7-yl]-amide], for which the Emax lay within 73 to 95%. For the molecule `Cc1nccc(C(=O)N[C@@H]2CC(F)(F)C[C@]3(CCN(c4cc(F)cc(F)c4)C3=O)C2)n1` (relative stereo) [Example 105, trans-2-Methyl-pyrimidine-4-carboxylic acid [2-(3,5-difluoro-phenyl)-9,9-difluoro-1-oxo-2-aza-spiro[4.5]dec-7-yl]-amide], the Emax was 47 to 93%. In the case of `O=C(N[C@@H]1CC(F)(F)C[C@@]2(CCN(c3ccc(F)cc3)C2=O)C1)c1ccccn1` (relative stereo) [Example 106, cis-Pyridine-2-carboxylic acid [9,9-difluoro-2-(4-fluoro-phenyl)-1-oxo-2-aza-spiro[4.5]dec-7-yl]-amide], the Emax is 47 to 93%.
